The test system of experiment [1] is CD4 T cell proliferation. Nature of the experiment: CD4 T cell proliferation by CFSE dilution, anti-CD3 stimulation. In kind it is cell-based, human. Conditions: human CD3+ T cells (n = 4 donors), CFSE dilution gated on CD4, 0.2 μg·ml^−1 plate-bound anti-CD3 (OKT3), no co-stimulation, 4 days, 0.2% DMSO. The method, then:
Figure 2. […] CD4 T cell proliferation was assessed upon stimulation with anti-CD3ϵ by CFSE dilution as a measure for cellular proliferation, analyzed on day 4. For rapamycin and AX-024–treated cells, the dashed line indicates control proliferation at a DMSO concentration of 0.2%. For CD3ϵ-derived peptides 11Rwt, 11R085, and 11Rscr, the dashed line indicates control proliferation at 0.3% DMSO, 0.3% PBS. 11Rwt has sequence R11-G3-[…], 11R085 R11-G3-Q(dK)[…], and 11Rscr R11-G3-[…](dK)PQP. A polyarginine tag is used to enable cell penetration of the peptides ([10]). The gray boxes indicate concentrations of compound leading to decreased cell viability. These values should be disregarded. Binding of peptides 11Rwt and 11R085, but not 11Rscr, to Nck-SH3.1 was confirmed by NMR spectroscopy (Fig. S1). Asterisks, p < 0.05 as determined by a repeated-measure one-way analysis of variance with Holm–Sidak's multiple-comparison test to DMSO/PBS. Dotted lines, mean DMSO/PBS values. Error bars, S.D.
Fresh human peripheral blood mononuclear cells (PBMCs) from healthy donors (n = 4) were prepared from buffy coats. CD3^+ T cells were isolated by immunomagnetic separation (negative selection, StemCell, lot 18A87710), carboxyfluorescein succinimidyl ester (CFSE)-labeled, resuspended in StemCell Immunocult^TM-XF T cell expansion medium, and treated with compounds or vehicle for 2 h at room temperature. The isolated CD3^+ T cells were stained for CD3, CD4, and CD8, and their purity was assessed by flow cytometry. Cells were then cultured in a 96-well flat-bottomed plate (10^5 cells/well), precoated for 1 h at 37 °C with 0.2 μg·ml^−1 plate-bound anti-CD3 (clone OKT3, BioLegend). […] Cells were cultured in the presence of AX-024, rapamycin, peptide 11Rwt, peptide 11R85, peptide 11Rscr (derived from Ref. [11]; see below for sequences), or vehicle for 4 days. At the end of culture, cells were stained for viability, and CFSE dilution was assessed by flow cytometry (with gating on CD4 versus CD8).

Experiment [2] concerns P-Zap70 in primary T cells. Nature of the experiment: Zap70 phosphorylation in primary T cells, flow cytometry. In kind it is cell-based, human. On the procedure: Figure 4. […] Healthy donor PBMCs were isolated rested overnight and pretreated with 20 μM AX-024 or vehicle prior to stimulation with 20 μg·ml^−1 (A) or 10 μg·ml^−1 (B) anti-CD3. The cells were gated on live cells, CD3, and CD4 for assessment of P-Zap70. Error bars, S.D.
Human PBMCs from healthy donors were prepared from 50 ml of fresh blood with Ficoll in Leucosep tubes. The tubes were centrifuged at room temperature (30 min, 800 × g) without brake. Isolated cells were washed and staved overnight. The cells were treated with AX-024 or vehicle and incubated for 1 h at 37 °C followed by further incubation on ice. 10, 25, or 50 μg·ml^−1 anti-CD3-biotin (clone OKT3, BioLegend) was added to the cells on ice for 15 min before neutravidin was added at a final concentration of 20 μg·ml^−1 for cross-linking. After stimulation for 3 min at 37 °C, cells were fixed (BD Cytofix fixation buffer) and permeabilized (TruePhos buffer, BioLegend). Staining was performed with CD3-PerCP (clone SK7, BD), CD4-BUV395 (clone SK3, BD), CD8-BV605 (clone RPAT8, BioLegend), and Zap70-PE (clone 65E4, CST). Flow cytometry and data analysis were done as described above.
Background: A flow cytometer gives signals particle by particle.

Experiment [3] relates to monomeric Nck1-SH3.1. The experiment can be described thus: Ligand-observed NMR with monomeric Nck1-SH3.1. In kind it is binding, human. To be noted: 50 μM ligand, 10 μM monomeric Nck1-SH3.1 (residues 1–61), pH 6.5, 150 mM NaCl, 27 °C. The method, then: (§1) NMR spectra were recorded on a Bruker 600-MHz Avance NEO spectrometer equipped with a cryogenic QCI probe head at 27 °C in 25 mM […], 150 mM NaCl. The Topspin 4.0 software (Bruker, Fällanden) was used for spectrometer operation and data processing. For ^1H ligand-observed measurements, a relaxation filtered pulse sequence utilizing a spinlock of 50 ms was applied. 1D spectra were acquired with 128 scans, a sweep width of 26 ppm, and an acquisition time of 2 s. 2D ^1H-^15N HSQC spectra with natural ^15N isotope abundance were recorded over 72 h with a spectral width of 16 ppm and 35 ppm in the proton and nitrogen dimensions, respectively, with 256 increments (complex) and 1000 scans per increment. A relaxation delay of 1 s was used between scans. For the DOSY measurements (reviewed in Ref. [51]), the Bruker pulse sequence ledbpgp2s with a diffusion delay of 50 ms and a gradient length of 600 μs was used. The gradient strength was varied from 5 to 95% to record 16 increments of 512 scans with a sweep width of 18 ppm and a relaxation delay of 1 s.
(§2) Samples for ligand-observed measurements were prepared in 25 mM sodium phosphate buffer, pH 6.5, 150 mM NaCl. One sample contained 50 μM AX-024, and the other contained 50 μM CD3ϵ peptide.

Experiment [4] concerns dimeric Nck1-SH3.1. Nature of the experiment: Ligand-observed NMR with dimeric Nck1-SH3.1. In kind it is binding, human. Conditions: 50 μM ligand, 10 μM dimeric Nck1-SH3.1 (residues 1–61), pH 6.5, 150 mM NaCl, 27 °C. On the procedure: as §1, §2

Entries after “also recorded” stand apart in the source; their conditions may differ.

In the case of `COc1ccc2c(c1)C(c1ccc(F)cc1)=C(CN1CCCC1)CO2.Cl` [AX-024, 1-((4-(4-fluorophenyl)-6-methoxy-2H-chromen-3-yl)methyl)pyrrolidine hydrochloride], the “inhibition of T cell proliferation” value in experiment [1] is on record as “inhibited T cell proliferation”. Further, the “reduction of Zap70 phosphorylation” value in experiment [2] (PBMCs from healthy donors, 20 μM AX-024 pretreatment, 20 or 10 μg·ml^−1 anti-CD3, gated on live, CD3, CD4) is recorded as “does not significantly reduce Zap70 phosphorylation”; in experiment [2] (different stimulation conditions, low anti-CD3, no co-stimulation), “none of the conditions tested resulted in significant reduction of Zap70 phosphorylation”. Further, the “ligand-observed NMR, spectral change / line broadening” value in experiment [3] was “no binding of AX-024 was detected by NMR; also recorded: do not show any spectral changes”; in experiment [4], “do not show any spectral changes; also recorded: no interaction was observed”.

The values are drawn from PMC7278359, “Small molecule AX-024 reduces T cell proliferation independently of CD3ϵ/Nck1 interaction, which is governed by a domain swap in the Nck1-SH3.1 domain” (The Journal of Biological Chemistry, 2020).
